Here are results for 3 compounds from ChEMBL document CHEMBL3352435, “Multiple fragment docking and linking in primary and secondary pockets of dopamine receptors” (ACS Med Chem Lett, 2014).

The structures appear in SMILES notation.

One test concerns the target D(2) dopamine receptor (Homo sapiens, UniProt P14416). Briefly: Displacement of [3H]-raclopride from human D2long receptor expressed in HEK293Galpha15 cells after 120 mins by scintillation counting analysis. Type of test: cell-based. For orientation: Displacement assays read how much labelled ligand stays bound in the presence of the test substance.
The target of a further test is D(3) dopamine receptor (Homo sapiens, UniProt P35462). Briefly: Displacement of [3H]-raclopride from human D3 receptor expressed in CHO-K1 cells after 120 mins by scintillation counting analysis. Type of test: cell-based.
The species named for another test is Homo sapiens. As to the kind of experiment: Selectivity index, ratio of Ki for human D2long receptor to Ki for human D3 receptor.

Sequence of D(2) dopamine receptor (P14416 whole entry): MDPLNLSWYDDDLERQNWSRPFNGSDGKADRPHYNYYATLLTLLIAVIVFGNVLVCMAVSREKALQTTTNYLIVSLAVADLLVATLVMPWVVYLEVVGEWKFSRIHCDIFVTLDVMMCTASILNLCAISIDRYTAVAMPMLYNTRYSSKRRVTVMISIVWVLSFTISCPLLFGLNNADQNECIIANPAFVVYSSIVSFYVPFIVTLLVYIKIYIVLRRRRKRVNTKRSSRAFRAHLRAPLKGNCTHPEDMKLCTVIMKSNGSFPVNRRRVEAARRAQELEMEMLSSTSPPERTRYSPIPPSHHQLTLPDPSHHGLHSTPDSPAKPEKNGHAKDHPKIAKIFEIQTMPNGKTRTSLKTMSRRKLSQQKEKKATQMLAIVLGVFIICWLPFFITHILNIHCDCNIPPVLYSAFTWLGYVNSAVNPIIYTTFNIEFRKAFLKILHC
Sequence of D(3) dopamine receptor (P35462 whole entry): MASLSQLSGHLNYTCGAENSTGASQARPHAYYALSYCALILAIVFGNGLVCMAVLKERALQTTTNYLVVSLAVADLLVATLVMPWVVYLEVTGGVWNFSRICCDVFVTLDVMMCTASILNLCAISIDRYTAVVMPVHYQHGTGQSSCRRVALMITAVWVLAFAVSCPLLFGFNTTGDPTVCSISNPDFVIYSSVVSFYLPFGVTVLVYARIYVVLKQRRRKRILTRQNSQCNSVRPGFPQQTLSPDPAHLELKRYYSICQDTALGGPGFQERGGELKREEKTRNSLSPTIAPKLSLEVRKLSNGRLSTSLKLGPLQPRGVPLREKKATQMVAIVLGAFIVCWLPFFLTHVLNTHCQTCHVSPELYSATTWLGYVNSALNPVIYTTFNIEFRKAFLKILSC

As a reminder, the Ki is the equilibrium dissociation constant of an inhibitor or competing ligand from its target. A low value points to a stronger hold on the target. For the compound `N#Cc1cc(N2CCN(CC[C@H]3CC[C@H](NC(N)=O)CC3)CC2)cc(C(F)(F)F)c1`, the figures for the Ki at D(2) dopamine receptor and on D(3) dopamine receptor were 30 nM and 0.75 nM, respectively. For the same compound, the Ratio Ki in the test filed under Homo sapiens is 39.

For the compound `N#Cc1cc(N2CCN(CC[C@H]3CC[C@H](NC(=O)CN)CC3)CC2)cc(C(F)(F)F)c1`, the Ki on D(2) dopamine receptor is 5.4 nM; at D(3) dopamine receptor, 0.62 nM. For the same compound, the Ratio Ki in the test listed under Homo sapiens worked out at 9.

Regarding `N#Cc1cc(N2CCN(CC[C@H]3CC[C@H](NS(N)(=O)=O)CC3)CC2)cc(C(F)(F)F)c1`, the Ki at D(2) dopamine receptor turned out to be 37 nM; on D(3) dopamine receptor, 0.67 nM. Further, the Ratio Ki in the test listed under Homo sapiens was 55.
